The target of one assay is CDK1/Cyclin B1 (Homo sapiens (Human), UniProt P06493). Kind of assay: CDK1/Cyclin B1 ADP-Glo Kinase Assay. Particulars: ADP-Glo, 80 uM ATP; read-out: CDK1 Cyclin B1 IC50. The assay is classed as biochemical. Put shortly:
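ADP-Glo luminescent readout of ADP production, with IC50 fitted by a four-parameter equation to fractional velocity against inhibitor concentration. Reaction started with ATP-containing substrate after a 30-minute enzyme–inhibitor pre-incubation and stopped after 90 minutes, both at room temperature.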

Another assay concerns the target CDK2/Cyclin E1 (Homo sapiens (Human), UniProt P24941). Kind of assay: CDK2/Cyclin E1 Full length ADP-Glo Kinase Assay. Conditions: 20 uM ATP, read-out: CDK2/ CyclinE1 IC50. The assay is classed as biochemical. Put shortly:
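ADP-Glo luminescence (ATP depletion, then ADP-to-light conversion) quantified kinase turnover after a 90 min room-temperature reaction started by ATP/substrate, following 30 min enzyme–inhibitor preincubation. Enzyme: full-length CDK2/cyclin E1; IC50 fitted with a four-parameter equation on fractional velocity.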
A general note: ADP-Glo first removes unused ATP, then detects ADP through luciferase.

The next assay concerns the target CDK4/Cyclin D1 (Homo sapiens (Human), UniProt P11802). Kind of assay: CDK4/Cyclin D1 Mobility Shift Assay (MSA). It counts as biochemical. Conditions: 0.2 mM ATP, read-out: CDK4/ CyclinD1 MSA IC50. The source says: CDK4/Cyclin D1 Mobility Shift Assay (MSA)
The purpose CDK4/Cyclin D1 assay is to evaluate the inhibition (% inhibition and IC50 values) in the presence of small molecule inhibitors by using a fluorescence based microfluidic mobility shift assay. CDK4/Cyclin D1 catalyzes the production of ADP from ATP that accompanies the phosphoryl transfer to the substrate peptide 5-FAM-Dyrktide (5-FAM-[…]) (Perkin Elmer Peptide 34). The mobility shift assay (MSA) electrophoretically separates the fluorescently labelled peptides (substrate and phosphorylated product) following the kinase reaction. Both substrate and product are measured, and the ratio of these values is used to generate % conversion of substrate to product by the LabChip EZ Reader. Typical reaction solutions contained 2% DMSO (+/− inhibitor), 10 mM MgCl2, 1 mM EGTA, 0.05% BSA, 2 mM DTT, 0.2 mM ATP, 0.01% Brig-35, 1.5 uM 5-FAM-Dyrktide, 2.5 nM CDK4/Cyclin D1 in 50 mM HEPES buffer at pH 7.5. The reaction was initiated with the addition of substrate solution, following a 30-minute pre-incubation of enzyme and inhibitor at 22° C. in the reaction mix. The reaction was stopped after 180 minutes by the addition of 75 uL of 500 mM EDTA and measured on a Perkin Elmer EZ reader instrument. IC50 determinations were made from a plot of the fractional velocity as a function of inhibitor concentration fit to the 4 parameters IC50 equation.

The target of a further assay is CDK6/Cyclin D3 (Homo sapiens (Human), UniProt Q00534). Kind of assay: CDK6/Cyclin D3 ADP-Glo Kinase Assay. It counts as biochemical. Particulars: 100 uM ATP, read-out: CDK6/ CyclinD3 IC50. The method, boiled down: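 ADP-Glo luminescence measured ADP produced by CDK6/Cyclin D3 in a 90-min room-temperature reaction started with ATP-containing substrate, after 30-min enzyme–inhibitor pre-incubation. Fractional velocity was plotted against inhibitor concentration and fitted to a four-parameter IC50 model.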
CDK6/Cyclin D3, sequence (Q00534 whole entry): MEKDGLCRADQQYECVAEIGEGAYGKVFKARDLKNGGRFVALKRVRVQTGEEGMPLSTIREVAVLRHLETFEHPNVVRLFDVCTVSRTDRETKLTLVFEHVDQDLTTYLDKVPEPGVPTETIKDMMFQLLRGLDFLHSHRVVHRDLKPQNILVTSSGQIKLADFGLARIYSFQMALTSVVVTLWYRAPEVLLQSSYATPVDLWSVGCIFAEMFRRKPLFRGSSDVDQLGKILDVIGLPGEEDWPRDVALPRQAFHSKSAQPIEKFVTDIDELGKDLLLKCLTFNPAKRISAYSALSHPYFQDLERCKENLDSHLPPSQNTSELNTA
CDK6/Cyclin D3, sequence (P30281 whole entry partner): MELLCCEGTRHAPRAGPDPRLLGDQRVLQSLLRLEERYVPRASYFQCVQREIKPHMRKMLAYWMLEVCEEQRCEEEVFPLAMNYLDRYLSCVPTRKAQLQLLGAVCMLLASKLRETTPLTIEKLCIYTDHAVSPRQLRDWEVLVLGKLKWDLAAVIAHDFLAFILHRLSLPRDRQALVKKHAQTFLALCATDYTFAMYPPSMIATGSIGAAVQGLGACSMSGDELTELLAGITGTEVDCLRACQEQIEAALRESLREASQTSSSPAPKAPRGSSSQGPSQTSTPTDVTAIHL

Another assay has as its system MCF-7 cells. Kind of assay: Cell Growth Inhibition, MCF-7 (CellTiterGlo, 6 days). It counts as cell-based. Particulars: Homo sapiens, MCF7, 144 h, MCF-7, 6-day treatment. The method, boiled down: (§1)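 IC50 from four-parameter, variable-slope fits of % growth inhibition, derived from CellTiterGlo 2.0 luminescence relative to control. Compounds, usually 10-10,000 nM in half-log steps, stayed 6 days at 37 °C, 5% CO2 with 500 MCF-7 or OVCAR-3 cells/well in 10% FBS RPMI.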
For orientation: Cellular ATP, detected with luciferase, serves as a proxy for viable cell number.

The next assay has as its system OVCAR-3 cells. Kind of assay: Cell Growth Inhibition, OVCAR-3 (CellTiterGlo, 6 days). The assay is classed as cell-based. Conditions: Homo sapiens, 144 h, OVCAR-3, 6-day treatment. Put shortly: as §1

Structures are written as SMILES. Bounds are passed on as bounds.

CDK4/Cyclin D1, sequence (P11802 whole entry): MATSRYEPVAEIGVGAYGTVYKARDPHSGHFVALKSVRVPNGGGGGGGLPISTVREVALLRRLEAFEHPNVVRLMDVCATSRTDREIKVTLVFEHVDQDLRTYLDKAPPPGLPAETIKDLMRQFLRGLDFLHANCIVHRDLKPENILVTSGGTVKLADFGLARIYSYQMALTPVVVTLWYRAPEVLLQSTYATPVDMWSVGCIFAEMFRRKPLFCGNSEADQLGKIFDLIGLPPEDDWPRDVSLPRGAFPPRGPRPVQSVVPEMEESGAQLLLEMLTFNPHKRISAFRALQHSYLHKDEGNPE
CDK4/Cyclin D1, sequence (P24385 whole entry partner): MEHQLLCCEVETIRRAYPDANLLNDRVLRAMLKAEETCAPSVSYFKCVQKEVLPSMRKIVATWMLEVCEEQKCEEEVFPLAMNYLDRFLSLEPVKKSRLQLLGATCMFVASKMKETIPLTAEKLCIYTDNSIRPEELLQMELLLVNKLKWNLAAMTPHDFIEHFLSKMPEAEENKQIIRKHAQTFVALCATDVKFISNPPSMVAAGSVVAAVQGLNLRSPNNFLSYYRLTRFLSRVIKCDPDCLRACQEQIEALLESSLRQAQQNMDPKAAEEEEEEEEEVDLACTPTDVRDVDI
CDK1/Cyclin B1, sequence (P06493 whole entry): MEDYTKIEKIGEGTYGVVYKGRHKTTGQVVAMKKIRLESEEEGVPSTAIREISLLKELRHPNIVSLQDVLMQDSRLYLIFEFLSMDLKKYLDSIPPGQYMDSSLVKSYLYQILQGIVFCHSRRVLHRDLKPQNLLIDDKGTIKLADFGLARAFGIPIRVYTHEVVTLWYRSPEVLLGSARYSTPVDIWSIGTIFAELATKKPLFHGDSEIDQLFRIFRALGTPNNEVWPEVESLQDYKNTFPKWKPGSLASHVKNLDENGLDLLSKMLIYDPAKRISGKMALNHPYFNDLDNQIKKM
CDK1/Cyclin B1, sequence (P14635 whole entry partner): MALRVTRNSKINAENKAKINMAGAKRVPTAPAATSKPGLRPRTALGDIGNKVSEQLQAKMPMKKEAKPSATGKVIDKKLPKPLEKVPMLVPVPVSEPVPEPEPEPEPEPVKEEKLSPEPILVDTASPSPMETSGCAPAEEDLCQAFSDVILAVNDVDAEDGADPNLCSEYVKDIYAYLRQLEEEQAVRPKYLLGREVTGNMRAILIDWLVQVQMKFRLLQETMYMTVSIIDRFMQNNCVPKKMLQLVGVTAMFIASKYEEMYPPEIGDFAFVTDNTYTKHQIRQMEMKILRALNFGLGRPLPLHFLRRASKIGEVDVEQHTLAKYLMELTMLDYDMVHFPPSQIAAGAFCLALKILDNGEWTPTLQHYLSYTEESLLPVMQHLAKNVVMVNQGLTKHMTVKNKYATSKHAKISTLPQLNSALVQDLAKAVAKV

Regarding `CN1CCN(c2ccc(Nc3ncc4ccnc(N5CCC6(C5)CC(F)(F)C6)c4n3)cc2)CC1` [Compound 4, 8-(2,2-difluoro-6-azaspiro[3.4]octan-6-yl)-N-(4-(4-methylpiperazin-1-yl)phenyl)pyrido[3,4-d]pyrimidin-2-amine], the IC50 is 200 to 500 nM at CDK1/Cyclin B1; less than 200 nM on CDK2/Cyclin E1; less than 200 nM on CDK4/Cyclin D1; less than 200 nM on CDK6/Cyclin D3; 200 to 500 nM in the assay with MCF-7 cells; 500 to 2000 nM in the assay with OVCAR-3 cells.

As to `CS(=O)(=O)N1CCC(Nc2ncc3ccnc(N4CCC(C#N)(C5CC5)C4)c3n2)CC1` (stereo not drawn) [Compound 5, 3-cyclopropyl-1-(2-((1-(methylsulfonyl)piperidin-4-yl)amino)pyrido[3,4-d]pyrimidin-8-yl)pyrrolidine-3-carbonitrile], the IC50 is less than 200 nM on CDK1/Cyclin B1; less than 200 nM on CDK2/Cyclin E1; less than 200 nM at CDK4/Cyclin D1; less than 200 nM on CDK6/Cyclin D3; 500 to 2000 nM in the assay on MCF-7 cells; 500 to 2000 nM with OVCAR-3 cells.

As to `CS(=O)(=O)N1CCC(Nc2ncc3ccnc(N4CCC5(CCOCC5)C4)c3n2)CC1` [Compound 7, N-(1-(methylsulfonyl)piperidin-4-yl)-8-(8-oxa-2-azaspiro[4.5]decan-2-yl)pyrido[3,4-d]pyrimidin-2-amine], the IC50 on CDK1/Cyclin B1 is 200 to 500 nM; at CDK2/Cyclin E1 it was less than 200 nM; on CDK4/Cyclin D1, less than 200 nM; on CDK6/Cyclin D3, less than 200 nM; in the assay on MCF-7 cells, 500 to 2000 nM; with OVCAR-3 cells it was 500 to 2000 nM.

As to `CN1CCn2nc(Nc3ncc4ccnc(N5CCC6(C5)CC6(F)F)c4n3)cc2C1` (stereo not drawn) [Compound 10, 8-(1,1-difluoro-5-azaspiro[2.4]heptan-5-yl)-N-(5-methyl-4,5,6,7-tetrahydropyrazolo[1,5-a]pyrazin-2-yl)pyrido[3,4-d]pyrimidin-2-amine], the IC50 was greater than 2000 nM on CDK1/Cyclin B1; less than 200 nM at CDK2/Cyclin E1; less than 200 nM at CDK4/Cyclin D1; less than 200 nM on CDK6/Cyclin D3; 500 to 2000 nM in the assay on MCF-7 cells; 500 to 2000 nM in the assay on OVCAR-3 cells.

On to `CS(=O)(=O)N1CC(Nc2ncc3ccnc(N4CCC5(C4)CC5(F)F)c3n2)C1` (stereo not drawn) [Compound 14, 8-(1,1-difluoro-5-azaspiro[2.4]heptan-5-yl)-N-(1-(methylsulfonyl)azetidin-3-yl)pyrido[3,4-d]pyrimidin-2-amine], for which the IC50 at CDK1/Cyclin B1 was 200 to 500 nM; at CDK2/Cyclin E1, less than 200 nM; at CDK4/Cyclin D1, less than 200 nM; on CDK6/Cyclin D3 it was less than 200 nM; in the assay on MCF-7 cells, greater than 2000 nM; with OVCAR-3 cells, greater than 2000 nM.

As for `CN1C[C@@H]2[C@H](C1)[C@H]2Nc1ncc2ccnc(N3CCC4(CCN(S(C)(=O)=O)C4)C3)c2n1` (stereo partly drawn) [Compound 15, N-((1R,5S,6s)-3-methyl-3-azabicyclo[3.1.0]hexan-6-yl)-8-(7-(methylsulfonyl)-2,7-diazaspiro[4.4]nonan-2-yl)pyrido[3,4-d]pyrimidin-2-amine], the IC50 at CDK1/Cyclin B1 was greater than 2000 nM; on CDK2/Cyclin E1 it was 500 to 2000 nM; on CDK4/Cyclin D1 it was 500 to 2000 nM; on CDK6/Cyclin D3, greater than 2000 nM; in the assay with MCF-7 cells, greater than 2000 nM; in the assay with OVCAR-3 cells it was greater than 2000 nM.

For the molecule `CN1C[C@@H]2[C@H](C1)[C@H]2Nc1ncc2ccnc(N3CCC4(C3)CC4(F)F)c2n1` (stereo partly drawn) [Compound 17, 8-(1,1-difluoro-5-azaspiro[2.4]heptan-5-yl)-N-((1R,5S,6s)-3-methyl-3-azabicyclo[3.1.0]hexan-6-yl)pyrido[3,4-d]pyrimidin-2-amine], the IC50 on CDK1/Cyclin B1 is greater than 2000 nM; at CDK2/Cyclin E1, 200 to 500 nM; on CDK4/Cyclin D1, less than 200 nM; at CDK6/Cyclin D3 it was 200 to 500 nM; with MCF-7 cells, 500 to 2000 nM; in the assay on OVCAR-3 cells, 500 to 2000 nM.

As for `CCN1CC2(C1)CN(c1ccc(Nc3ncc4ccnc(N5CCC6(CCOCC6)C5)c4n3)nc1)C2` [Compound 18, N-(5-(6-ethyl-2,6-diazaspiro[3.3]heptan-2-yl)pyridin-2-yl)-8-(8-oxa-2-azaspiro[4.5]decan-2-yl)pyrido[3,4-d]pyrimidin-2-amine], the IC50 at CDK1/Cyclin B1 was greater than 2000 nM; on CDK2/Cyclin E1, 500 to 2000 nM; on CDK4/Cyclin D1, less than 200 nM; on CDK6/Cyclin D3 it was less than 200 nM; in the assay on MCF-7 cells it was 200 to 500 nM; in the assay on OVCAR-3 cells, greater than 2000 nM.

Take `CS(=O)(=O)N1CCC(Nc2ncc3ccnc(N4CC5(CCCC5)c5c(F)cccc54)c3n2)CC1` [Compound 19, 8-(4′-fluorospiro[cyclopentane-1,3′-indolin]-1′-yl)-N-(1-(methylsulfonyl)piperidin-4-yl)pyrido[3,4-d]pyrimidin-2-amine]: the IC50 on CDK1/Cyclin B1 is greater than 2000 nM; at CDK2/Cyclin E1, less than 200 nM; at CDK4/Cyclin D1 it was 500 to 2000 nM; on CDK6/Cyclin D3, greater than 2000 nM; with MCF-7 cells, greater than 2000 nM; in the assay on OVCAR-3 cells it was greater than 2000 nM.

For `CN1CCC(n2cc(Nc3ncc4ccnc(N5CCC6(C5)CC6(F)F)c4n3)cn2)CC1` (stereo not drawn) [Compound 20, 8-(1,1-difluoro-5-azaspiro[2.4]heptan-5-yl)-N-(1-(1-methylpiperidin-4-yl)-1H-pyrazol-4-yl)pyrido[3,4-d]pyrimidin-2-amine], the IC50 was 500 to 2000 nM on CDK1/Cyclin B1; less than 200 nM on CDK2/Cyclin E1; less than 200 nM at CDK4/Cyclin D1; less than 200 nM on CDK6/Cyclin D3; 500 to 2000 nM in the assay with MCF-7 cells; 200 to 500 nM in the assay with OVCAR-3 cells.

Consider `CN1Cc2ccc(Nc3ncc4ccnc(N5CCC6(C5)CC6(F)F)c4n3)cc2C1` (stereo not drawn) [Compound 22, 8-(1,1-difluoro-5-azaspiro[2.4]heptan-5-yl)-N-(2-methylisoindolin-5-yl)pyrido[3,4-d]pyrimidin-2-amine], for which the IC50 at CDK1/Cyclin B1 was less than 200 nM; on CDK2/Cyclin E1 it was less than 200 nM; at CDK4/Cyclin D1 it was less than 200 nM; at CDK6/Cyclin D3, less than 200 nM; in the assay with MCF-7 cells it was 200 to 500 nM; in the assay with OVCAR-3 cells, 200 to 500 nM.

As to `CS(=O)(=O)N1CCC(Nc2ncc3ccnc(N4CCC5(C4)CC(F)(F)C5)c3n2)CC1` [Example 2, 8-(2,2-difluoro-6-azaspiro[3.4]octan-6-yl)-N-(1-(methylsulfonyl)piperidin-4-yl)pyrido[3,4-d]pyrimidin-2-amine], the IC50 at CDK1/Cyclin B1 is less than 200 nM; on CDK2/Cyclin E1 it was less than 200 nM; on CDK4/Cyclin D1 it was less than 200 nM; at CDK6/Cyclin D3 it was less than 200 nM; with MCF-7 cells, 500 to 2000 nM; with OVCAR-3 cells, 500 to 2000 nM.

With `CCN1CC2(C1)CN(c1ccc(Nc3ncc4ccnc(N5CCC6(C5)CC(F)(F)C6)c4n3)nc1)C2` [Example 6, 8-(2,2-difluoro-6-azaspiro[3.4]octan-6-yl)-N-(5-(6-ethyl-2,6-diazaspiro[3.3]heptan-2-yl)pyridin-2-yl)pyrido[3,4-d]pyrimidin-2-amine], the IC50 was greater than 2000 nM at CDK1/Cyclin B1; 500 to 2000 nM at CDK2/Cyclin E1; less than 200 nM on CDK4/Cyclin D1; less than 200 nM on CDK6/Cyclin D3; 500 to 2000 nM in the assay on MCF-7 cells; greater than 2000 nM with OVCAR-3 cells.

The values above are taken from patent publication US20240034731A1, “AZA-QUINAZOLINE COMPOUNDS AND METHODS OF USE” (Iambic Therapeutics, Inc., priority 2022, published 2024).
